Species on record: Rattus norvegicus
Test: Open TG-GATES - Regimen: Single
Type: toxicity, organism-based, Sprague-Dawley
Parameters: regimen Single, gender Male, age 6 weeks
Details: in vivo, ip, 0 mg/kg, route intraperitoneal injection, dose level Control; for APTT / Bas / Eos / Fbg / Hb / Ht / Lym / MCH / MCHC / MCV / Mono / Neu / PT / Plat / RBC / Ret / WBC: tissue Blood; for KIDNEY_L / KIDNEY_R / KIDNEY_TOTAL: tissue Kidney; for LIVER: tissue Liver; for A/G / ALP / ALT / AST / BUN / CRE / Ca / Cl / DBIL / GLC / IP / K / LDH / Na / PL / RALB / TBIL / TC / TG / TP / gamma-GTP: tissue Plasma

Question: How did the TERMINAL_BW (9 h) turn out when `CC(C)=CC(=O)C=C(C)C` [PHORONE] was run?
Answer: 217.4 g

Question: And the APTT (9 h)?
Answer: 17.2 s

Question: And the Bas (9 h)?
Answer: 0%

Question: And the Eos (9 h)?
Answer: 0.8%

Question: And the Fbg (9 h)?
Answer: 246.8 mg/dL

Question: What about the Hb (9 h) of the same compound?
Answer: 13.1 g/dL

Question: And the Ht (9 h)?
Answer: 39.7%

Question: And the Lym (9 h)?
Answer: 70%

Question: And the MCH (9 h)?
Answer: 21.7 pg

Question: And the MCHC (9 h)?
Answer: 33.1%

Question: And the MCV (9 h)?
Answer: 65.5 fL

Question: What about the Mono (9 h) of the same compound?
Answer: 4.6%

Question: And the Neu (9 h)?
Answer: 25.2%

Question: And the PT (9 h)?
Answer: 11.9 s

Question: And the Plat (9 h)?
Answer: 112.4 x10_4/uL

Question: And the RBC (9 h)?
Answer: 606.8 x10_4/ul

Question: What about the Ret (9 h) of the same compound?
Answer: 9.2%

Question: What about the WBC (9 h) of the same compound?
Answer: 108.4 x10_2/uL

Question: And the KIDNEY_L (9 h)?
Answer: 0.9 g

Question: And the KIDNEY_R (9 h)?
Answer: 1 g

Question: And the KIDNEY_TOTAL (9 h)?
Answer: 1.9 g

Question: What about the LIVER (9 h) of the same compound?
Answer: 9 g

Question: What about the A/G (9 h) of the same compound?
Answer: 2.1

Question: And the ALP (9 h)?
Answer: 720.6 IU/L

Question: What about the ALT (9 h) of the same compound?
Answer: 29.8 IU/L

Question: And the AST (9 h)?
Answer: 60.6 IU/L

Question: And the BUN (9 h)?
Answer: 11.4 mg/dL

Question: And the CRE (9 h)?
Answer: 0.5 mg/dL

Question: What about the Ca (9 h) of the same compound?
Answer: 10.7 mg/dL

Question: What about the Cl (9 h) of the same compound?
Answer: 105.8 meq/L

Question: What about the DBIL (9 h) of the same compound?
Answer: 0.066 mg/dL

Question: What about the GLC (9 h) of the same compound?
Answer: 200.6 mg/dL

Question: What about the IP (9 h) of the same compound?
Answer: 10.6 mg/dL

Question: What about the K (9 h) of the same compound?
Answer: 4.5 meq/L

Question: What about the LDH (9 h) of the same compound?
Answer: 74.8 IU/L

Question: What about the Na (9 h) of the same compound?
Answer: 138.8 meq/L

Question: What about the PL (9 h) of the same compound?
Answer: 138.6 mg/dL

Question: And the RALB (9 h)?
Answer: 3.8 g/dL

Question: What about the TBIL (9 h) of the same compound?
Answer: 0.4 mg/dL

Question: And the TC (9 h)?
Answer: 79.8 mg/dL

Question: And the TG (9 h)?
Answer: 42.8 mg/dL

Question: And the TP (9 h)?
Answer: 5.6 g/dL

Question: What about the gamma-GTP (9 h) of the same compound?
Answer: 1.4 IU/L

Question: What about the TERMINAL_BW (24 h) of the same compound?
Answer: 237.9 g

Question: What about the APTT (24 h) of the same compound?
Answer: 17.4 s

Question: And the Bas (24 h)?
Answer: 0%

Question: What about the Eos (24 h) of the same compound?
Answer: 1%

Question: And the Fbg (24 h)?
Answer: 276.4 mg/dL

Question: And the Hb (24 h)?
Answer: 12.9 g/dL

Question: And the Ht (24 h)?
Answer: 38.6%

Question: What about the Lym (24 h) of the same compound?
Answer: 73.6%

Question: What about the MCH (24 h) of the same compound?
Answer: 21.5 pg

Question: And the MCHC (24 h)?
Answer: 33.3%

Question: And the MCV (24 h)?
Answer: 64.8 fL

Question: And the Mono (24 h)?
Answer: 4.6%

Question: And the Neu (24 h)?
Answer: 20.6%

Question: And the PT (24 h)?
Answer: 11.7 s

Question: What about the Plat (24 h) of the same compound?
Answer: 118.3 x10_4/uL

Question: What about the RBC (24 h) of the same compound?
Answer: 596.2 x10_4/ul

Question: What about the Ret (24 h) of the same compound?
Answer: 8.4%

Question: And the WBC (24 h)?
Answer: 101.3 x10_2/uL

Question: What about the KIDNEY_L (24 h) of the same compound?
Answer: 1 g

Question: And the KIDNEY_R (24 h)?
Answer: 1.1 g

Question: What about the KIDNEY_TOTAL (24 h) of the same compound?
Answer: 2.1 g

Question: And the LIVER (24 h)?
Answer: 11.7 g

Question: And the A/G (24 h)?
Answer: 1.9

Question: And the ALP (24 h)?
Answer: 856.2 IU/L

Question: What about the ALT (24 h) of the same compound?
Answer: 28.8 IU/L

Question: What about the AST (24 h) of the same compound?
Answer: 55.6 IU/L

Question: And the BUN (24 h)?
Answer: 16.4 mg/dL

Question: And the CRE (24 h)?
Answer: 0.5 mg/dL

Question: What about the Ca (24 h) of the same compound?
Answer: 10.9 mg/dL

Question: And the Cl (24 h)?
Answer: 103.2 meq/L

Question: And the DBIL (24 h)?
Answer: 0.026 mg/dL

Question: What about the GLC (24 h) of the same compound?
Answer: 195.4 mg/dL

Question: What about the IP (24 h) of the same compound?
Answer: 8.7 mg/dL

Question: What about the K (24 h) of the same compound?
Answer: 4.9 meq/L

Question: And the LDH (24 h)?
Answer: 66.2 IU/L

Question: What about the Na (24 h) of the same compound?
Answer: 138.4 meq/L

Question: What about the PL (24 h) of the same compound?
Answer: 140.6 mg/dL

Question: And the RALB (24 h)?
Answer: 3.6 g/dL

Question: What about the TBIL (24 h) of the same compound?
Answer: 0.4 mg/dL

Question: What about the TC (24 h) of the same compound?
Answer: 78.4 mg/dL

Question: What about the TG (24 h) of the same compound?
Answer: 80.8 mg/dL

Question: And the TP (24 h)?
Answer: 5.6 g/dL

Question: And the gamma-GTP (24 h)?
Answer: 1.6 IU/L
